This test concerns the target T1, Ssy1p (Saccharomyces cerevisiae, UniProt Q03770).
T1 sequence (Q03770 1-852): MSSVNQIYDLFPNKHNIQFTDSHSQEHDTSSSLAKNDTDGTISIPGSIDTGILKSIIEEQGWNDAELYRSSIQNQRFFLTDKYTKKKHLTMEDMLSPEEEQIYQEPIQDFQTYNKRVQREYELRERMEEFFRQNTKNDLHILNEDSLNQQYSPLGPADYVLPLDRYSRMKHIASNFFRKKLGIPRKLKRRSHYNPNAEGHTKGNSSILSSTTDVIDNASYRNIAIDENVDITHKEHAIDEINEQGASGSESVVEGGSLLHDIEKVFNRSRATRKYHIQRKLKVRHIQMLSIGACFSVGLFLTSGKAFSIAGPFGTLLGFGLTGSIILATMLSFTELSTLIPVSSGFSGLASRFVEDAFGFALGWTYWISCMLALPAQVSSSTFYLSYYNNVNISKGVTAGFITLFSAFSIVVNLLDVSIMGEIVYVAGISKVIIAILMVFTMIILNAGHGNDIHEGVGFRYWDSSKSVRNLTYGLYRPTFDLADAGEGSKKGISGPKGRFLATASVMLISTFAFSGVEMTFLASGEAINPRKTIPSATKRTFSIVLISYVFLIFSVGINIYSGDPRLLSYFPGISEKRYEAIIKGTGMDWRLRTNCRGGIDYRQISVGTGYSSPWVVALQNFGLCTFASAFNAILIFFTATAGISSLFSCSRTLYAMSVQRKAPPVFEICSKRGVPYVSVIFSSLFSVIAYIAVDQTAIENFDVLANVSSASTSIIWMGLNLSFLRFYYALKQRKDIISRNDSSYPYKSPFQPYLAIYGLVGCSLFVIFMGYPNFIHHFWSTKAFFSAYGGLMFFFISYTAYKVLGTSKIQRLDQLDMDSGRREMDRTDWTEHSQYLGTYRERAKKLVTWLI
As to the kind of experiment: Ssy1p signaling measured as Stp1p processing. In kind it is cell-based. As to conditions: for EC50: EC50 for sensing of extracellular amino acid, grown in SD.

For orientation: EC50 means the midpoint of the concentration-response curve.

Each structure is given as a SMILES string.

For the compound `CC(C)C[C@H](N)C(=O)O` [Leu, leucine], the 50% effective concentration (EC50) reads like this: (experiment 1, strain M5447 (ura3 gap1Δ), Leuc 0.5 μmol/g DW, mean of triplicate) 13 µM; (experiment 5, strain M5568 (ura3 gap1Δ bap2Δ tat1Δ bap3Δ agp1::URA3), Leuc 1 μmol/g DW) 15 µM; (experiment 9, strain M5446 (ura3 gap1Δ LEU4-fbr), Leuc 12 μmol/g DW) 30 µM.

With `CC(C)CCO` [isoamyl alcohol], the “Effect on EC50 of adding isoamyl alcohol” value (isoamyl alcohol at relevant concentrations, unpublished data) is given as “no significant effect”.

Values taken from paper PMC2063833 (The Journal of Cell Biology, 2006).
